# In PMC8536644, “Enigmatic mechanism of the N-vinylpyrrolidone hepatocarcinogenicity in the rat” (Archives of Toxicology, 2021):
# Values joined by “and” are separate entries in the source; they are usually repeats but may differ in a detail not shown here. Equal entries are not always repeated. Where two headings read alike, the source gives them in different places.
# Assays:
# [1] = Trypan Blue viability of the single cell suspension, liver; format: in vivo, rat; settings: rat, inhaled
# rat liver cells = test: as above; format: in vivo; settings: liver, 5 days, individual animals
# rat lung cells = test: Comet assay, conventional (no FPG), lung; settings: for Hedgehogs/100 cells (mean ± SD) / TI (%) (mean ± SD) / TI (%), mean of medians from 2 slides: lung, no FPG, 5 days; for TI (%), mean of medians from 2 slides: individual animals
# Protocol: Animals were anesthetized by 3.5% isoflurane (approximately 3 min, evaporator Dräger Vapor 19.3) and then killed by cervical dislocation. The liver was removed and its left lateral lobe used for the Comet assay. The remainder of the liver was washed in saline and then in two aliquots shock frozen in liquid nitrogen and stored at − 80 °C for later examinations. Subsequently the lung was removed from the dead animal. Its left lobe was used for the Comet assay and the remainder treated as described above for the liver. Thereafter the femora were removed for the preparation of the bone marrow.
# The Comet assay was performed under alkaline conditions according to the principles described by Singh et al. ([1988]) and Tice et al. ([2000]).
# Liver and lung cells were obtained essentially as described by Hartmann et al. ([2004]) and by the Japanese Center for the Validation of Alternative Methods (JaCVAM [2009]). Single cells were obtained within 1 h after killing of the animals in order to minimize DNA damage during the preparation.
# The organ parts (see above) were washed in mincing buffer (50 mM EDTA in HBSS [without Ca^2+ and Mg^2+] pH 7.5: DMSO 9:1 (v/v), the latter added shortly before use, stored at 4 °C), cut into 1 to 2-mm pieces in ice-cold mincing buffer and transferred to a cell sieve with 70-µm pores. The viability of the cell suspension was evaluated by the Trypan Blue Assay (Strober [2001]).
# 100 µL of the obtained cell suspension was mixed at 37 °C with 900 µL Low Melting Agarose (LMA) (0.7% agarose in phosphate-buffered saline [PBS] [Biochrom, Berlin, Germany] without Ca^2+ and Mg^2+). 100 µL of this mixture was transferred to a slide, which had been coated with Normal Melting Agarose (NMA) (0.6% agarose in PBS without Ca^2+ and Mg^2+). The slides were protected with a cover slip and the agarose was hardened at approximately 4 °C. The cover slips were then removed and the slides put over night at 4 °C into lysis buffer (2.5 M NaCl, 125 mM NaOH, 127 mM EDTA, 10 mM Tris/NaOH, pH 10; 1% Triton X-100 and 10% DMSO (v/v), the latter two added before use) in order to lyse the cell membrane, nuclear membrane and remove the histone.
# The then following procedures were performed in a shaded room to minimize UV-mediated DNA damage during the procedures.
# Remaining lysis buffer or FPG buffer was removed by immersing/washing the slides in PBS (without Ca^2+ and Mg^2+).
# The slides were then placed into the electrophoresis chamber, which was cooled and protected from light. Slides were covered with electrophoresis buffer (0.3 M NaOH, 1 mM EDTA, pH > 13) carefully avoiding air bubbles. The DNA was allowed to unwind (20 min). Thereafter the electrophoresis was started (25 V, 300 mA, […], 30 min). The slides were then washed (2 times 5 min) in neutralization buffer (0.4 M Tris/HCl, pH 7.5), dehydrated and fixed in 100% ethanol (1 min), dried at room temperature overnight and stored at room temperature protected from dust.
# Quantitative evaluation of the Comet assays was performed by fluorescence microscopy after DNA staining with ethidium bromide.
smiles,measurement,setting,value
"C=CN1CCCC1=O [NVP, N-vinylpyrrolidone]",viability at 5 days,"[1]; both sexes, Wistar Crl:WI (Han), liver and lung single cell suspensions, either of the two organs (liver, lung) after NVP treatment, read-out: Viability (dye exclusion test)",> 90%
same,viability at 5 days,"[1]; both sexes, Wistar Crl:WI (Han), liver single cell suspension, liver cells, NVP-exposed, read-out: Viability, range of the individual animals",90 to 99%
same,viability at 5 days,"[1]; female, Wistar, liver, 5 ppm, liver, female, Comet with FPG (Table 9), 5 ppm inhalation, 5 days, individual animals, read-out: Individual viability (%)",99%
same,viability at 5 days,"[1]; female, Wistar, liver, 5 ppm, liver, female, Comet with FPG (Table 9), 5 ppm inhalation, 5 days, read-out: Viability (%) (mean ± SD)",99 ± 1%
same,viability at 5 days,"[1]; female, Wistar, liver, 5 ppm, liver, female, no FPG, 5 ppm inhalation, 5 days, individual animals, read-out: Individual viability (%)",98%
same,viability at 5 days,"[1]; female, Wistar, liver, 5 ppm, liver, female, no FPG, 5 ppm inhalation, 5 days, read-out: Viability (%) (mean ± SD)",97 ± 1%
same,viability at 5 days,"[1]; female, Wistar, liver, 10 ppm, liver, female, Comet with FPG (Table 9), 10 ppm inhalation, 5 days, individual animals, read-out: Individual viability (%)",98%
same,viability at 5 days,"[1]; female, Wistar, liver, 10 ppm, liver, female, Comet with FPG (Table 9), 10 ppm inhalation, 5 days, read-out: Viability (%) (mean ± SD)",98 ± 1%
same,viability at 5 days,"[1]; female, Wistar, liver, 10 ppm, liver, female, no FPG, 10 ppm inhalation, 5 days, individual animals, read-out: Individual viability (%)",96%
same,viability at 5 days,"[1]; female, Wistar, liver, 10 ppm, liver, female, no FPG, 10 ppm inhalation, 5 days, read-out: Viability (%) (mean ± SD)",96 ± 1%
same,viability at 5 days,"[1]; female, Wistar, liver, 20 ppm, liver, female, Comet with FPG (Table 9), 20 ppm inhalation, 5 days, individual animals, read-out: Individual viability (%)",98%
same,viability at 5 days,"[1]; female, Wistar, liver, 20 ppm, liver, female, Comet with FPG (Table 9), 20 ppm inhalation, 5 days, read-out: Viability (%) (mean ± SD)",98 ± 1%
same,viability at 5 days,"[1]; female, Wistar, liver, 20 ppm, liver, female, no FPG, 20 ppm inhalation, 5 days, individual animals, read-out: Individual viability (%)",96%
same,viability at 5 days,"[1]; female, Wistar, liver, 20 ppm, liver, female, no FPG, 20 ppm inhalation, 5 days, read-out: Viability (%) (mean ± SD)",97 ± 1%
same,viability at 5 days,"[1]; male, Wistar, liver, 5 ppm, liver, male, Comet with FPG (Table 8), 5 ppm inhalation, 5 days, individual animals, read-out: Individual viability (%)",97%
same,viability at 5 days,"[1]; male, Wistar, liver, 5 ppm, liver, male, Comet with FPG (Table 8), 5 ppm inhalation, 5 days, read-out: Viability (%) (mean ± SD)",98 ± 1%
same,viability at 5 days,"[1]; male, Wistar, liver, 5 ppm, liver, male, no FPG, 5 ppm inhalation, 5 days, individual animals, read-out: Individual viability (%)",92%
same,viability at 5 days,"[1]; male, Wistar, liver, 5 ppm, liver, male, no FPG, 5 ppm inhalation, 5 days, read-out: Viability (%) (mean ± SD)",95 ± 3%
same,viability at 5 days,"[1]; male, Wistar, liver, 10 ppm, liver, male, Comet with FPG (Table 8), 10 ppm inhalation, 5 days, individual animals, read-out: Individual viability (%)",99%
same,viability at 5 days,"[1]; male, Wistar, liver, 10 ppm, liver, male, Comet with FPG (Table 8), 10 ppm inhalation, 5 days, read-out: Viability (%) (mean ± SD)",98 ± 2%
same,viability at 5 days,"[1]; male, Wistar, liver, 10 ppm, liver, male, no FPG, 10 ppm inhalation, 5 days, individual animals, read-out: Individual viability (%)",96%
same,viability at 5 days,"[1]; male, Wistar, liver, 10 ppm, liver, male, no FPG, 10 ppm inhalation, 5 days, read-out: Viability (%) (mean ± SD)",96 ± 1%
same,viability at 5 days,"[1]; male, Wistar, liver, 20 ppm, liver, male, Comet with FPG (Table 8), 20 ppm inhalation, 5 days, individual animals, read-out: Individual viability (%)",100%
same,viability at 5 days,"[1]; male, Wistar, liver, 20 ppm, liver, male, Comet with FPG (Table 8), 20 ppm inhalation, 5 days, read-out: Viability (%) (mean ± SD)",99 ± 1%
same,viability at 5 days,"[1]; male, Wistar, liver, 20 ppm, liver, male, no FPG, 20 ppm inhalation, 5 days, individual animals, read-out: Individual viability (%)",98%
same,viability at 5 days,"[1]; male, Wistar, liver, 20 ppm, liver, male, no FPG, 20 ppm inhalation, 5 days, read-out: Viability (%) (mean ± SD)",97 ± 1%
same,Individual viability (%),"rat liver cells; female, no FPG, 10 ppm inhalation",94%
same,Individual viability (%),"rat liver cells; male, Comet with FPG (Table 8), 10 ppm inhalation",93%
same,Individual viability (%),"rat liver cells; male, no FPG, 5 ppm inhalation",90%
same,Individual viability (%),"rat liver cells; male, no FPG, 10 ppm inhalation",94%
same,Hedgehogs,"rat lung cells; NVP-treated lung cells, with or without FPG",1–7%
same,Hedgehogs/100 cells (mean ± SD),"rat lung cells; female, 5 ppm inhalation",2 ± 1 /100 cells
same,TI (%) (mean ± SD),"rat lung cells; female, 5 ppm inhalation",1.2 ± 0.34%
same,"TI (%), mean of medians from 2 slides","rat lung cells; female, 5 ppm inhalation",0.7% and 1.2% and 1.5% and 1.6% and 1.3%
same,Hedgehogs/100 cells (mean ± SD),"rat lung cells; female, 10 ppm inhalation",2 ± 2 /100 cells
same,"TI (%), mean of medians from 2 slides","rat lung cells; female, 10 ppm inhalation",0.4% and 0.9% and 0.5% and 0.6%
same,Hedgehogs/100 cells (mean ± SD),"rat lung cells; female, 20 ppm inhalation",2 ± 3 /100 cells
same,TI (%) (mean ± SD),"rat lung cells; female, 20 ppm inhalation",1.0 ± 0.32%
same,"TI (%), mean of medians from 2 slides","rat lung cells; female, 20 ppm inhalation",0.7% and 0.9% and 1.2% and 1.0% and 1.6%
same,Hedgehogs/100 cells (mean ± SD),"rat lung cells; male, 5 ppm inhalation",4 ± 3 /100 cells
same,"TI (%), mean of medians from 2 slides","rat lung cells; male, 5 ppm inhalation",1.8% and 0.6% and 0.7% and 0.8% and 1.9%
same,Hedgehogs/100 cells (mean ± SD),"rat lung cells; male, 10 ppm inhalation",7 ± 5 /100 cells
same,TI (%) (mean ± SD),"rat lung cells; male, 10 ppm inhalation",1.8 ± 1.94%
same,"TI (%), mean of medians from 2 slides","rat lung cells; male, 10 ppm inhalation",5.7% and 1.3% and 1.2% and 0.7% and 1.0% and 1.1%
